Experimental data published in US20260102340A1, “Therapeutic Formulation” (1000739373 Ontario Ltd., priority 2022, published 2026).
Values joined by “and” are separate entries in the source; they are usually repeats but may differ in a detail not shown here. Equal values may be shown once.

How the values were obtained:
Type in all cases: physicochemical
[1] = Quantitative solubility of melatonin in ethanol/HFA 152a (filtered supersaturated solutions, HPLC)
Description: Data was obtained at 5° C. (see FIG. 15 and FIG. 16) and T=20° C. (see FIG. 17 and FIG. 18) and presented as % w/w, μg/50 μl and μg/63 μl (see also Table 4).

[2] = Melatonin drug residual (total can content) after storage at 40° C. and 75% relative humidity; conditions: for Initial Melatonin t = 0 (can content) / Initial Melatonin t = 0, mean: 100 μg/50 μL
Description: Drug residual measurements (total can content) was determined following storage at 40° C. and 75% relative humidity.
Each canister type was packaged with metering valve 1908 (Aptar™, 50 μl) (MDI batches OZ211003/RJ/A and OZ211003/RJ/C) and metering valves 1904 (Bespak™ 50 μl, with dip tube 1906) (MDI batches OZ211003/RJ/B and OZ211003/RJ/D).

[3] = Visual solubility of formulations packaged in glass bottles; conditions: for Visual appearance in glass bottles: 5° C.
[4] = 6% w/w ethanol, HFA 152a, Plain Aluminum 14 ml canister, Metering Valve 1904 (with dip tube 1906)
[5] = 6% w/w ethanol, HFA 152a, Plain Aluminum 14 ml canister, Metering Valve 1908
[6] = 6% w/w ethanol, HFA 152a, Plasma Coated 14 ml canister, Metering Valve 1904 (with dip tube 1906)
[7] = 6% w/w ethanol, HFA 152a, Plasma coated 14 ml canister, Metering Valve 1908
[8] = Plain Aluminum canister, Metering Valve 1904 (with dip tube 1906), t = 1 month @ 40° C./75% RH, stored Inverted
[9] = Plain Aluminum canister, Metering Valve 1904 (with dip tube 1906), t = 1 month @ 40° C./75% RH, stored Upright
[10] = Plain Aluminum canister, Metering Valve 1904 (with dip tube 1906), t = 3 month @ 40° C./75% RH, stored Inverted (valve down)
[11] = Plain Aluminum canister, Metering Valve 1904 (with dip tube 1906), t = 3 month @ 40° C./75% RH, stored Upright (valve up)
[12] = Plain Aluminum canister, Metering Valve 1908, t = 1 month @ 40° C./75% RH, stored Inverted
[13] = Plain Aluminum canister, Metering Valve 1908, t = 1 month @ 40° C./75% RH, stored Upright
[14] = Plain Aluminum canister, Metering Valve 1908, t = 3 month @ 40° C./75% RH, stored Inverted (valve down)
[15] = Plain Aluminum canister, Metering Valve 1908, t = 3 month @ 40° C./75% RH, stored Upright (valve up)
[16] = Plasma Coated canister, Metering Valve 1904 (with dip tube 1906), t = 1 month @ 40° C./75% RH, stored Inverted
[17] = Plasma Coated canister, Metering Valve 1904 (with dip tube 1906), t = 1 month @ 40° C./75% RH, stored Upright
[18] = Plasma Coated canister, Metering Valve 1904 (with dip tube 1906), t = 3 month @ 40° C./75% RH, stored Inverted (valve down)
[19] = Plasma Coated canister, Metering Valve 1904 (with dip tube 1906), t = 3 month @ 40° C./75% RH, stored Upright (valve up)
[20] = Plasma coated canister, Metering Valve 1908, t = 1 month @ 40° C./75% RH, stored Inverted
[21] = Plasma coated canister, Metering Valve 1908, t = 1 month @ 40° C./75% RH, stored Upright
[22] = Plasma coated canister, Metering Valve 1908, t = 3 month @ 40° C./75% RH, stored Inverted (valve down)
[23] = Plasma coated canister, Metering Valve 1908, t = 3 month @ 40° C./75% RH, stored Upright (valve up)

## COc1ccc2[nH]cc(CCNC(C)=O)c2c1 [Melatonin]
[1]; 0% w/w ethanol, T = 5° C.
  *Melatonin μg per 56 mg (63 μl): 8 μg per 56 mg (63 μl)
  Melatonin %(w/w) in filtered supersaturated HFA152a solution: 0.01 %(w/w)
  Melatonin μg per 44 mg (50 μl): 6 μg per 44 mg (50 μl)
[1]; 0% w/w ethanol, T = 20° C.
  *Melatonin μg per 56 mg (63 μl): 9 μg per 56 mg (63 μl)
  Melatonin %(w/w) in filtered supersaturated HFA152a solution: 0.02 %(w/w)
  Melatonin μg per 44 mg (50 μl): 7 μg per 44 mg (50 μl)
[1]; 5% w/w ethanol, T = 5° C.
  *Melatonin μg per 56 mg (63 μl): 121 μg per 56 mg (63 μl)
  Melatonin %(w/w) in filtered supersaturated HFA152a solution: 0.22 %(w/w)
  Melatonin μg per 44 mg (50 μl): 95 μg per 44 mg (50 μl)
[1]; 5% w/w ethanol, T = 20° C.
  *Melatonin μg per 56 mg (63 μl): 159 μg per 56 mg (63 μl)
  Melatonin %(w/w) in filtered supersaturated HFA152a solution: 0.28 %(w/w)
  Melatonin μg per 44 mg (50 μl): 125 μg per 44 mg (50 μl)
[1]; 8% w/w ethanol, T = 5° C.
  *Melatonin μg per 56 mg (63 μl): 270 μg per 56 mg (63 μl)
  Melatonin %(w/w) in filtered supersaturated HFA152a solution: 0.48 %(w/w)
  Melatonin μg per 44 mg (50 μl): 212 μg per 44 mg (50 μl)
[1]; 8% w/w ethanol, T = 20° C.
  *Melatonin μg per 56 mg (63 μl): 395 μg per 56 mg (63 μl)
  Melatonin %(w/w) in filtered supersaturated HFA152a solution: 0.70 %(w/w)
  Melatonin μg per 44 mg (50 μl): 310 μg per 44 mg (50 μl)
[1]; 10% w/w ethanol, T = 5° C.
  *Melatonin μg per 56 mg (63 μl): 339 μg per 56 mg (63 μl)
  Melatonin %(w/w) in filtered supersaturated HFA152a solution: 0.60 %(w/w)
  Melatonin μg per 44 mg (50 μl): 266 μg per 44 mg (50 μl)
[1]; 10% w/w ethanol, T = 20° C.
  *Melatonin μg per 56 mg (63 μl): 456 μg per 56 mg (63 μl)
  Melatonin %(w/w) in filtered supersaturated HFA152a solution: 0.82 %(w/w)
  Melatonin μg per 44 mg (50 μl): 359 μg per 44 mg (50 μl)
[1]; 15% w/w ethanol, T = 5° C.
  *Melatonin μg per 56 mg (63 μl): 588 μg per 56 mg (63 μl)
  Melatonin %(w/w) in filtered supersaturated HFA152a solution: 1.05 %(w/w)
  Melatonin μg per 44 mg (50 μl): 462 μg per 44 mg (50 μl)
[1]; 15% w/w ethanol, T = 20° C.
  *Melatonin μg per 56 mg (63 μl): 817 μg per 56 mg (63 μl)
  Melatonin %(w/w) in filtered supersaturated HFA152a solution: 1.46 %(w/w)
  Melatonin μg per 44 mg (50 μl): 642 μg per 44 mg (50 μl)
[2]; [4]
  Initial Melatonin t = 0 (can content): 15408 µg and 15450 µg and 15897 µg
  Initial Melatonin t = 0, mean: 15.6 mg
[2]; [5]
  Initial Melatonin t = 0 (can content): 16200 µg and 15676 µg and 15379 µg
  Initial Melatonin t = 0, mean: 15.8 mg
[2]; [6]
  Initial Melatonin t = 0 (can content): 15417 µg and 15682 µg and 15292 µg
  Initial Melatonin t = 0, mean: 15.5 mg
[2]; [7]
  Initial Melatonin t = 0 (can content): 15430 µg and 15517 µg and 15810 µg
  Initial Melatonin t = 0, mean: 15.6 mg
[2]; MDIs stored valve down
  Residual melatonin at 3-month: 93% to 96
[2]; [8]
  Residual Melatonin: 15162 µg and 14967 µg
  Residual Melatonin % of t = 0: 97 % of t = 0
[2]; [9]
  Residual Melatonin: 14959 µg and 15331 µg
  Residual Melatonin % of t = 0: 97 % of t = 0
[2]; [10]
  Residual Melatonin: 14652 µg and 14318 µg
  Residual Melatonin % of t = 0: 93 % of t = 0
[2]; [11]
  Residual Melatonin: 14721 µg and 14847 µg
  Residual Melatonin % of t = 0: 98 % of t = 0
[2]; [12]
  Residual Melatonin: 15171 µg and 15131 µg
  Residual Melatonin % of t = 0: 98 % of t = 0
[2]; [13]
  Residual Melatonin: 15403 µg and 15581 µg
  Residual Melatonin % of t = 0: 100 % of t = 0
[2]; [14]
  Residual Melatonin: 14920 µg and 14914 µg
  Residual Melatonin % of t = 0: 96 % of t = 0
[2]; [15]
  Residual Melatonin: 15600 µg and 15422 µg
  Residual Melatonin % of t = 0: 100 % of t = 0
[2]; [16]
  Residual Melatonin: 14872 µg and 14984 µg
  Residual Melatonin % of t = 0: 97 % of t = 0
[2]; [17]
  Residual Melatonin: 14944 µg and 15211 µg
  Residual Melatonin % of t = 0: 98 % of t = 0
[2]; [18]
  Residual Melatonin: 14634 µg and 14510 µg
  Residual Melatonin % of t = 0: 94 % of t = 0
[2]; [19]
  Residual Melatonin: 14805 µg and 14789 µg
  Residual Melatonin % of t = 0: 98 % of t = 0
[2]; [20]
  Residual Melatonin: 15024 µg and 14980 µg
  Residual Melatonin % of t = 0: 96 % of t = 0
[2]; [21]
  Residual Melatonin: 15578 µg and 15444 µg
  Residual Melatonin % of t = 0: 100 % of t = 0
[2]; [22]
  Residual Melatonin: 14661 µg and 14791 µg
  Residual Melatonin % of t = 0: 94 % of t = 0
[2]; [23]
  Residual Melatonin: 15461 µg and 15469 µg
  Residual Melatonin % of t = 0: 100 % of t = 0
[2]; all packaging and storage conditions, 40° C./75% RH
  Residual melatonin at 1-month: 96-98%
[2]; stored valve up, both canister types, metering valve 1904 (Bespak with dip tube 1906)
  Residual melatonin at 3-month: 98%
[2]; stored valve up, both canister types, metering valve 1908 (Aptar)
  Residual melatonin at 3-month: 100%
[2]; t = 0, 100 μg/50 μl, 6% w/w ethanol, HFA 152a
  Initial time point residual, % of the target formulation: 97.5±1.7%
[3]; 50 μg/50 μl in 5% ethanol and HFA 134a, T=5° C. and T=20° C.
  Visual solubility: confirmed visually
[3]; 100 μg/50 μl (5% w/w ethanol), HFA 152a, 4° C. and 20° C.
  Visual solubility: soluble
[3]; 100 μg/50 μl in 12% w/w ethanol and HFA 134a, T=5° C. and T=20° C.
  Visual solubility in glass bottles: confirmed visually
[3]; 100 μg/50 μl, 6% w/w ethanol in HFA 152a
  Visual appearance in glass bottles: clear solutions
[3]; 200 μg/50 μl, 8% w/w ethanol in HFA 152a
  Visual appearance in glass bottles: clear solutions
[3]; 500 μg/50 μl (15% w/w ethanol), HFA 152a, 4° C. and 20° C.
  Visual solubility: soluble
